Source: patent US10329302B2, “Bicyclic-fused heteroaryl or aryl compounds” (Pfizer Inc., priority 2014, dated 2019)

Tests used:
[1] = tested on: R848-induced TNFα production by human peripheral blood mononuclear cells (PBMCs); assay: R848 Induced TNFα in Human PBMC Assay; type: cell-based; conditions: Homo sapiens, PBMC, 3 h, read-out: R848-induced TNFa PBMC IC50 (nM)
[2] = target: human IRAK4 FL (Full Length) (Homo sapiens (Human), UniProt Q9NWZ3); assay: IRAK4 Enzymatic DELFIA Assay, Protocol A; type: biochemical; conditions: human IRAK4 FL, 0.6 mM ATP (KM); read-out: IRAK4 DELFIA Protocol A IC50
Chain of human IRAK4 FL (Full Length) (Q9NWZ3 whole entry): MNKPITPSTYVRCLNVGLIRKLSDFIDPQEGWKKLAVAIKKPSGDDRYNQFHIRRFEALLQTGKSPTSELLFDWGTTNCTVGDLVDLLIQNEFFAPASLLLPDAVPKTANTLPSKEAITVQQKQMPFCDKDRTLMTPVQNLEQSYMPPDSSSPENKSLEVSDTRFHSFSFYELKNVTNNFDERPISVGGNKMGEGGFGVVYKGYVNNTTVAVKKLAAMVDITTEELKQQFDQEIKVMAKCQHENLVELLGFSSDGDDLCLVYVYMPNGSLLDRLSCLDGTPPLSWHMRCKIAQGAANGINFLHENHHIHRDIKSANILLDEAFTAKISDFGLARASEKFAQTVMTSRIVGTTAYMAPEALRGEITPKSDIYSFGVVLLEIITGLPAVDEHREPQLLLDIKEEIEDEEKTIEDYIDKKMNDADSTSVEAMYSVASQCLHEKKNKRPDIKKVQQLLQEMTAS

Compound | IC50 [1] [nM] | IC50 [2] [nM]
COc1cc2c(OC[C@H]3NC(=O)[C@@H]4[C@@H](F)[C@@H]43)ccnc2cc1C(N)=O [Example 324, 4-{[(1S,2S,5R)-6-fluoro-4-oxo-3-azabicyclo[3.1.0]hex-2-yl]methoxy}-6-methoxyquinoline-7-carboxamide] | 277 | 0.6
COc1cc2c(OC[C@H]3NC(=O)[C@]4(F)C[C@H]34)ccnc2cc1C(N)=O [Example 325, 4-{[(1R,2S,5S)-5-fluoro-4-oxo-3-azabicyclo[3.1.0]hex-2-yl]methoxy}-6-methoxyquinoline-7-carboxamide] | 87 | 0.4
COc1cc2c(OC[C@H]3NC(=O)[C@@H]4C[C@H]34)ccnc2cc1C(N)=O [Example 326, 6-methoxy-4-{[(1S,2S,5R)-4-oxo-3-azabicyclo[3.1.0]hex-2-yl]methoxy}quinoline-7-carboxamide] | 1200 | 1.2
COc1cc2c(OC[C@H]3NC(=O)[C@@H]4[C@@H](CO)[C@@H]43)nccc2cc1C(N)=O [Example 327, 1-{[(1S,2S,5S)-6-(hydroxymethyl)-4-oxo-3-azabicyclo[3.1.0]hex-2-yl]methoxy}-7-methoxyisoquinoline-6-carboxamide] | 3310 | 20
C=C[C@H]1CC(=O)N[C@@H]1COc1nccc2cc(C(N)=O)c(OC)cc12 [Example 329, 1-{[(2S,3R)-3-ethenyl-5-oxopyrrolidin-2-yl]methoxy}-7-methoxyisoquinoline-6-carboxamide] | 252 | 13
COc1cc2c(OC[C@H]3NC(=O)CC34CC4)nccc2cc1C(N)=O [Example 330, 7-methoxy-1-{[(4S)-6-oxo-5-azaspiro[2.4]hept-4-yl]methoxy}isoquinoline-6-carboxamide] | 134 | 14
COc1cc2c(OC[C@H]3NC(=O)[C@@H]4[C@@H](CF)[C@@H]43)ccnc2cc1C(N)=O [Example 333, 4-{[(1R,2S,5S)-6-(fluoromethyl)-4-oxo-3-azabicyclo[3.1.0]hex-2-yl]methoxy}-6-methoxyquinoline-7-carboxamide] | 182 | 0.3
COc1cc2c(OC[C@H]3NC(=O)[C@H]4[C@@H]3[C@]4(C)F)nccc2cc1C(N)=O [Example 335, 1-{[(1S,2S,5R)-6-fluoro-6-methyl-4-oxo-3-azabicyclo[3.1.0]hex-2-yl]methoxy}-7-methoxyisoquinoline-6-carboxamide] | 746 | 4
COc1cc2c(OC[C@H]3NC(=O)[C@H]4[C@@H]3[C@@]4(C)F)nccc2cc1C(N)=O [Example 336, 1-{[(1S,2S,5R)-6-fluoro-6-methyl-4-oxo-3-azabicyclo[3.1.0]hex-2-yl]methoxy}-7-methoxyisoquinoline-6-carboxamide] | 674 | 0.3
CC[C@@H]1[C@H](F)C(=O)N[C@@H]1COc1nccc2cc(C(N)=O)c(OCCOC)cc12 [Example 339, 1-{[(2S,3S,4S)-3-ethyl-4-fluoro-5-oxopyrrolidin-2-yl]methoxy}-7-(2-methoxyethoxy)isoquinoline-6-carboxamide] | 269 | 90
COC[C@@H]1CC(=O)N[C@@H]1COc1nccc2cc(C(N)=O)c(OC)cc12 [Example 340, 7-methoxy-1-{[(2S,3R)-3-(methoxymethyl)-5-oxopyrrolidin-2-yl]methoxy}isoquinoline-6-carboxamide] | 456 | 12
CC[C@@H]1[C@H](F)C(=O)N[C@@H]1COc1ncnc2cc(C(N)=O)c(OC)cc12 [Example 341, 4-{[(2S,3S,4S)-3-ethyl-4-fluoro-5-oxopyrrolidin-2-yl]methoxy}-6-methoxyquinazoline-7-carboxamide] | 16 | 0.3
CC[C@@H]1[C@H](OC)C(=O)N[C@@H]1COc1nccc2cc(C(N)=O)c(OC)cc12 [Example 342, 1-{[(2S,3S,4S)-3-ethyl-4-methoxy-5-oxopyrrolidin-2-yl]methoxy}-7-methoxyisoquinoline-6-carboxamide] | 2380 | 1000
